Test results published in patent US20250228239A1, “MOLECULES HAVING PESTICIDAL UTILITY, AND INTERMEDIATES, COMPOSITIONS, AND PROCESSES, RELATED THERETO” (priority 2024, published 2025).
Like-named read-outs stand apart in the source and are kept apart here.

Legend:
Type in all cases: in vivo
[1] = system: Green Peach Aphid (Myzus persicae, MYZUPE); assay: Bioassays on Green Peach Aphid (GPA), foliar spray on cabbage seedlings; details: 72 h, read-out: GPA
How it was run: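 Percent control (Abbott-corrected versus solvent-sprayed plants) comes from live-aphid counts three days after treatment at about 25° C. Test solution at 200 ppm was sprayed to runoff onto both leaf surfaces of cabbage seedlings infested a day earlier with 20-50 aphids; four replicate pots.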

[2] = system: Beet Armyworm (Spodoptera exigua, LAPHEG); assay: Bioassays on Beet Armyworm (BAW), 128-well diet tray assay; details: Spodoptera exigua, read-out: BAW
How it was run: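 Percent larval mortality, averaged across eight wells, scored after five to seven days at 25° C. under 14:10 light-dark. Each well held one to five second instars feeding on diet dosed at 50 μg/cm^2 with compound from 90:10 acetone-water, solvent dried off.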

[3] = system: Yellow Fever Mosquito (Aedes aegypti, AEDSAE)
How it was run: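 Compounds from 4000 ppm DMSO stocks were diluted in 90:10 water/acetone and dispensed into wells, then infested with about 1-day-old larvae in liver-powder water. Covered plates were held at room temperature for 3 days and each well was scored for mortality against a rating scale; six replicate plates per compound.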

[4] = system: Cabbage Looper (Trichoplusia ni, TRIPNI); assay: Bioassays on Cabbage Looper (CL), 128-well diet tray assay; details: Trichoplusia ni, read-out: CL
How it was run: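 Second-instar larvae (1–5 per well) placed on artificial diet surface-treated with 50 μg/cm^2 test molecule applied in 90:10 acetone-water and dried. Held at 25° C., 14:10 light-dark, for five to seven days. Percent mortality scored per well and averaged over eight wells.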

[5] = Table ABC: Biological Results, species GPA
[6] = Table ABC: Biological Results, species BAW
[7] = Table ABC: Biological Results, species YFM
[8] = Table ABC: Biological Results, species CL
[9] = Green Peach Aphid, rating class
[10] = Yellow Fever Mosquito, rating class

Structure (SMILES)	pest or weed control at 200 µg/mL [1, 5]	pest or weed control at 50 µg/cm2 [2, 6]	YFM [3, 7]	pest or weed control at 50 µg/cm2 [4, 8]	pest or weed control at 200 µg/mL [1, 9]	pest or weed control at 50 µg/cm2 ([2]; Beet Armyworm, rating class)	YFM [3, 10]	pest or weed control at 50 µg/cm2 ([4]; Cabbage Looper, rating class)
O=C(Nc1ccc(F)c(NC(=O)C(F)(F)Cl)c1F)c1cc(NC(=O)[C@H]2[C@H](c3ccc(Cl)c(Cl)c3)C2(Cl)Cl)ccc1Cl [F1248, 2-Chloro-N-(3-(2-chloro-2,2-difluoroacetamido)-2,4-difluorophenyl)-5-((1R,3R)-2,2-dichloro-3-(3,4-dichlorophenyl)cyclopropane-1-carboxamido)benzamide]	80 to 100%	50 to 100%	A (80–100)	50 to 100%				
Nc1ccc(F)c(NC(=O)c2cc(NC(=O)[C@H]3[C@H](c4ccc(Cl)c(Cl)c4)C3(Cl)Cl)ccc2Cl)c1F [F1250, N-(3-Amino-2,6-difluorophenyl)-2-chloro-5-((1R,3R)-2,2-dichloro-3-(3,4-dichlorophenyl)cyclopropane-1-carboxamido)benzamide]	80 to 100%	50 to 100%	A (80–100)	50 to 100%				
O=C(Nc1ccc(F)c(NC(=O)C(F)(F)C(F)(F)F)c1F)c1cc(NC(=O)[C@H]2[C@H](c3ccc(Cl)c(Cl)c3)C2(Cl)Cl)ccc1Cl [F1251, 2-Chloro-5-((1R,3R)-2,2-dichloro-3-(3,4-dichlorophenyl)cyclopropane-1-carboxamido)-N-(2,4-difluoro-3-(2,2,3,3,3-pentafluoropropanamido)phenyl)benzamide]	0 to 80%	50 to 100%	A (80–100)	50 to 100%				
CCOC(C)C(=O)Nc1c(F)ccc(NC(=O)c2cc(NC(=O)[C@H]3[C@H](c4ccc(F)c(C(F)(F)F)c4)C3(Cl)Cl)ccc2Cl)c1F (stereo partly drawn) [F1364, 2-Chloro-5-((1R,3R)-2,2-dichloro-3-(4-fluoro-3-(trifluoromethyl)phenyl)cyclopropane-1-carboxamido)-N-(3-(2-ethoxypropanamido)-2,4-difluorophenyl)benzamide]	0 to 80%	50 to 100%	A (80–100)	50 to 100%				
CCC(=O)Nc1c(F)ccc(NC(=O)c2cc(NC(=O)[C@H]3[C@H](c4ccc(F)c(C(F)(F)F)c4)C3(Cl)Cl)ccc2Cl)c1F [F1371, 2-Chloro-5-((1R,3R)-2,2-dichloro-3-(4-fluoro-3-(trifluoromethyl)phenyl)cyclopropane-1-carboxamido)-N-(2,4-difluoro-3-propionamidophenyl)benzamide]	0 to 80%	50 to 100%	A (80–100)	50 to 100%				
CN(C(=O)C(F)F)c1c(F)ccc(NC(=O)c2cc(NC(=O)[C@H]3[C@H](c4ccc(F)c(C(F)(F)F)c4)C3(Cl)Cl)ccc2Cl)c1F [F1386, 2-Chloro-5-((1R,3R)-2,2-dichloro-3-(4-fluoro-3-(trifluoromethyl)phenyl)cyclopropane-1-carboxamido)-N-(3-(2,2-difluoro-N-methylacetamido)-2,4-difluorophenyl)benzamide]	0 to 80%	50 to 100%	A (80–100)	50 to 100%				
CN(C(=O)C(F)F)c1c(F)ccc(NC(=O)c2cc(NC(=O)[C@H]3[C@H](c4ccc(F)c(Cl)c4)C3(Cl)Cl)ccc2Cl)c1F [F1460, 2-Chloro-5-((1R,3R)-2,2-dichloro-3-(3-chloro-4-fluorophenyl)cyclopropane-1-carboxamido)-N-(3-(2,2-difluoro-N-methylacetamido)-2,4-difluorophenyl)benzamide]					80 to 100%	50 to 100%	A (80–100)	50 to 100%
O=C(Nc1ccc(F)cc1)c1c(Cl)ccc(NC(=O)[C@H]2[C@H](c3ccc(F)c(Cl)c3)C2(Cl)Cl)c1F [F1465, 6-chloro-3-((1R,3R)-2,2-dichloro-3-(3-chloro-4-fluorophenyl)cyclopropane-1-carboxamido)-2-fluoro-N-(4-fluorophenyl)benzamide]					80 to 100%	50 to 100%	A (80–100)	50 to 100%
CCCC(=O)Nc1c(F)ccc(NC(=O)c2cc(NC(=O)[C@H]3[C@H](c4ccc(Cl)c(Cl)c4)C3(Cl)Cl)ccc2Cl)c1F [F1473, N-(3-Butyramido-2,4-difluorophenyl)-2-chloro-5-((1R,3R)-2,2-dichloro-3-(3,4-dichlorophenyl)cyclopropane-1-carboxamido)benzamide]					0 to 80%	50 to 100%	A (80–100)	50 to 100%
CCCCC(=O)Nc1c(F)ccc(NC(=O)c2cc(NC(=O)[C@H]3[C@H](c4ccc(Cl)c(Cl)c4)C3(Cl)Cl)ccc2Cl)c1F [F1474, 2-Chloro-5-((1R,3R)-2,2-dichloro-3-(3,4-dichlorophenyl)cyclopropane-1-carboxamido)-N-(2,4-difluoro-3-pentanamidophenyl)benzamide]					0 to 80%	50 to 100%	A (80–100)	50 to 100%
O=C1CC(C(=O)Nc2c(F)ccc(NC(=O)c3cc(NC(=O)[C@H]4[C@H](c5ccc(Cl)c(Cl)c5)C4(Cl)Cl)ccc3Cl)c2F)C1 [F1475, 2-Chloro-5-((1R,3R)-2,2-dichloro-3-(3,4-dichlorophenyl)cyclopropane-1-carboxamido)-N-(2,4-difluoro-3-(3-oxocyclobutane-1-carboxamido)phenyl)benzamide]					0 to 80%	50 to 100%	A (80–100)	50 to 100%
CC(Br)C(=O)Nc1c(F)ccc(NC(=O)c2cc(NC(=O)[C@H]3[C@H](c4ccc(F)c(C(F)(F)F)c4)C3(Cl)Cl)ccc2Cl)c1F (stereo partly drawn) [F1479, N-(3-(2-Bromopropanamido)-2,4-difluorophenyl)-2-chloro-5-((1R,3R)-2,2-dichloro-3-(4-fluoro-3-(trifluoromethyl)phenyl)cyclopropane-1-carboxamido)benzamide]					0 to 80%	50 to 100%	A (80–100)	50 to 100%
CC(C)C(=O)Nc1c(F)ccc(NC(=O)c2cc(NC(=O)[C@H]3[C@H](c4ccc(F)c(C(F)(F)F)c4)C3(Cl)Cl)ccc2Cl)c1F [F1483, 2-Chloro-5-((1R,3R)-2,2-dichloro-3-(4-fluoro-3-(trifluoromethyl)phenyl)cyclopropane-1-carboxamido)-N-(2,4-difluoro-3-isobutyramidophenyl)benzamide]					0 to 80%	50 to 100%	A (80–100)	50 to 100%
COCCC(=O)Nc1c(F)ccc(NC(=O)c2cc(NC(=O)[C@H]3[C@H](c4ccc(F)c(C(F)(F)F)c4)C3(Cl)Cl)ccc2Cl)c1F [F1489, 2-Chloro-5-((1R,3R)-2,2-dichloro-3-(4-fluoro-3-(trifluoromethyl)phenyl)cyclopropane-1-carboxamido)-N-(2,4-difluoro-3-(3-methoxypropanamido)phenyl)benzamide]					0 to 80%	50 to 100%	A (80–100)	50 to 100%
